The values that follow are results of earlier work, collected in patent publication US6482863B2, “Insect repellant formulation deliverable by piezoelectric device” (S. C. Johnson & Son, Inc., priority 2000, dated 2002).

For data set [1] the following is noted: at 20° C.
The conditions of data set [2]: at 25° C.

For the compound `COCC(C)O` (stereo not shown) [Propylene glycol methyl ether], the “vapor pressure of solvent” value in data set [1] was 8.1 mm Hg.
For `COCC(C)OCC(C)OC` (stereo not shown) [Dipropylene glycol dimethyl ether], the water solubility was 35 g/100 ml water. In addition, the viscosity of solvent in data set [2] was 1 cp. Further, in data set [1], the “vapor pressure of solvent” value is reported as 0.55 mm Hg.
